Laboratory results from US12377112B2, “Methods of treating neurocognitive disorders, chronic pain and reducing inflammation” (priority 2019, dated 2025).

Columns and labels:
patients = conditions: human, in vivo; cited from earlier work
male CD1 mice = assay: Pentylenetetrazol (PTZ) infusion seizure threshold; type: in vivo, mouse; conditions: 10 mg/kg
Excerpt: Administration of chemical convulsant agents such as Pentylenetetrazol (PTZ) are used to mimic behavioral aspects of human epilepsy. PTZ causes myoclonic jerking movements, clonic convulsions or forelimb/hindlimb tonic extension in rodents. The PTZ model is primarily used to evaluate anti-convulsant properties of antiepileptic drugs (AED's) by identifying compounds which raise seizure threshold but can also be used to identify pro-convulsant agents that lower seizure threshold. PTZ is a well-established model for acute and repetitive seizures, and is accepted for use for screening AED action. PTZ induces myoclonic and generalized tonic-clonic seizures.
Male CD1 mice (age 6-8 weeks, weight 30.0-42.9 g, source: Charles River UK) were used in this study. […] During this time-infusion, mice were individually assessed for the onset of myoclonic, forelimb tonus and hindlimb tonus seizures. The latencies (in seconds) from start of infusion to the appearance of first myoclonus, forelimb tonic and hind limb tonic extension were recorded. […] For animals reaching this cut off, the dose of PTZ in mg/kg infused over the 120 s was calculated as the threshold dose. […]
Data was analysed using one way ANOVA in which the dose of PTZ required to induce seizure was compared between each treatment groups and vehicle. […]

[1] = system: children aged 7 to 14 years old with ADHD; conditions: 6-week trial, children aged 7 to 14 years with ADHD; cited from earlier work

Which “Decreased appetite, % of patients” value (patients) does the source give for `CNCC[C@@H](Oc1ccccc1C)c1ccccc1` [Atomoxetine, atomoxetine] here?
The value was 15-20%.

Which “Dose of PTZ required to induce myoclonic, forelimb and hindlimb tonic seizures” value (male CD1 mice) does the source give for `CN1C(=O)CN=C(c2ccccc2)c2cc(Cl)ccc21` [Diazepam, diazepam] here?
Its value is “significantly increased”.

With `NC(=O)C[S+]([O-])C(c1ccccc1)c1ccccc1` (stereo not drawn) [modafinil] as the molecule, how does the “Response rate compared to placebo” value [1] read?
Its value is 78%.
